Patent US20230235077A1, “MATERIALS AND METHODS OF TREATING CANCER” (THE GENERAL HOSPITAL CORPORATION, priority 2020, published 2023)

What was measured:
D4M.3A melanoma cells = assay: D4M.3A melanoma in mice: interval versus continuous mepazine with anti-PD-1 (Example 1); assay type: in vivo; conditions: female C57BL/6 mice; mepazine 16 mg/kg i.p. daily on days 7-10 only versus continuously to day 19; with anti-PD-1 mAb 200 μg i.p. daily; FIG. 1
Protocol: Female C57BL/6 mice were implanted subcutaneously with 10^6 D4M.3A melanoma cells. Starting 7 days later (arrow), animals were treated with daily i.p. injections of 200 μg of anti-PD-1 mAbs (clone 29F.1A12) or isotype control mAb (rat IgG2a). Some animals in addition received daily i.p. injections of 16 mg/kg bodyweight of the allosteric MALT-1 inhibitor mepazine, either for the first 4 days (days 7-10) only, or continuously until the end of the experiment on day 19. Tumor size was measured using a caliper every 2-3 days. n=4/group. *=p<0.05 versus Ctrl.

D4M.3A syngeneic tumors [1] = assay: D4M.3A syngeneic tumor efficacy study: (S)-mepazine IP ×3, ×7 or QD with anti-PD1 (Example 6); assay type: in vivo, C57BL/6 mice
Protocol: Male C57BL/6 mice were implanted subcutaneously with D4M.3A syngeneic tumors. The mice were dosed with (S)-mepazine IP and with anti-PD1 mouse clone 29F.1A12 dosed 3 times 200 μg/dose at days 0, 2, and 4 of a treatment cycle. A ×3 arm of mice were dosed at days 0, 1, and 3 of a 21 day treatment cycle with (S)-mepazine IP. A ×7 arm of mice were dosed at days 0-6 of a 21 day treatment cycle with (S)-mepazine IP. A QD arm of mice were dosed daily with (S)-mepazine IP. Tumor volume was measured each day. The results of the study are shown in FIGS. 2 and 3, for ×3 arm and ×7 arm, respectively.

D4M.3A syngeneic tumors [2] = assay: D4M.3A syngeneic tumor efficacy study: (S)-mepazine PO 5 days on/5 days off or QD with anti-PD1 (Example 7); assay type: in vivo; conditions: male C57BL/6 mice; (S)-mepazine PO 5 days on and 5 days off versus each day; with anti-PD1 200 μg at days 0, 2, 4; FIG. 4
Protocol: Male C57BL/6 mice were implanted subcutaneously with D4M.3A syngeneic tumors. The mice were dosed with (S)-mepazine PO and with anti-PD1 mouse clone 29F.1A12 dosed 3 times 200 μg/dose at days 0, 2, and 4 of a treatment cycle. The mice were dosed 5 days on with (S)-mepazine and 5 days off (a dose holiday) (5+5) or each day with (S)-mepazine (QD) PO. Tumor volume was measured each day.

In the case of `CN1CCCC(CN2c3ccccc3Sc3ccccc32)C1` (racemic) [mepazine], the “Tumor size, interval versus continuous treatment” value (D4M.3A melanoma cells) is reported as “at least as effective as continuous treatment”.
With `CN1CCC[C@H](CN2c3ccccc3Sc3ccccc32)C1` [(S)-mepazine] the “Tumor control of ×3 and ×7 arms versus QD dosing arm” value (D4M.3A syngeneic tumors [1]; (S)-mepazine IP with anti-PD1, up to 7 days after (S)-mepazine was dosed) was “comparable to the QD dosing arm”, the “Tumor volume, activity against the tumor compared to anti-PD1 alone, ×3 arm” value (D4M.3A syngeneic tumors [1]; male C57BL/6 mice, (S)-mepazine IP on days 0, 1 and 3 of 21 day cycle, with anti-PD1 200 μg at days 0, 2, 4, FIG. 2) was “improved activity against the tumor compared to anti-PD1 alone” and the “Tumor volume, activity against the tumor compared to anti-PD1 alone, ×7 arm” value (D4M.3A syngeneic tumors [1]; male C57BL/6 mice, (S)-mepazine IP on days 0-6 of 21 day cycle, with anti-PD1 200 μg at days 0, 2, 4, FIG. 3) was “improved activity against the tumor compared to anti-PD1 alone”. For the same molecule, the “Duration of efficacy for tumor control after (S)-mepazine was dosed” value (D4M.3A syngeneic tumors [1]; ×3 and ×7 arms, (S)-mepazine IP with anti-PD1, male C57BL/6 mice) was “up to 7 days” and the “Tumor volume, 5+5 dosing versus QD dosing” value (D4M.3A syngeneic tumors [2]) was “equivalent to a QD dosing schedule”.
